In brackets after ≈: the same amount, converted by molar mass. Activity calls are given as the source filed them. How the calls were made is not given here.
What was measured:
Staphylococcus aureus [1] = assay: Antimicrobial activity against Staphylococcus aureus Smith by micro broth dilution or agar based method; type: functional
Streptococcus pneumoniae = assay: Antimicrobial activity against Streptococcus pneumoniae IID553 by micro broth dilution or agar based method; type: functional
Enterococcus faecium = assay: Antimicrobial activity against vancomycin-resistant Enterococcus faecium VanA by micro broth dilution or agar based method; type: functional
Escherichia coli = assay: Antimicrobial activity against Escherichia coli ATCC 25922 by micro broth dilution or agar based method; type: functional
Acinetobacter baumannii = assay: Antimicrobial activity against Acinetobacter baumannii IID876 by micro broth dilution or agar based method; type: functional
Pseudomonas aeruginosa = assay: Antimicrobial activity against Pseudomonas aeruginosa PAO1 by micro broth dilution or agar based method; type: functional
Staphylococcus aureus [2] = assay: Antimicrobial activity against methicillin-resistant Staphylococcus aureus OIT971 by micro broth dilution or agar based method; type: functional, organism-based
Staphylococcus aureus [3] = assay: Resistance index, ratio of MIC for quinolone-resistant Staphylococcus aureus MS5935 to MIC for quinolone-[…]; type: functional

Row | SMILES | MIC (Staphylococcus aureus [1]) [µg/mL] | MIC (Streptococcus pneumoniae) [µg/mL] | MIC (Enterococcus faecium) [µg/mL] | MIC (Escherichia coli) [µg/mL] | MIC (Acinetobacter baumannii) [µg/mL] | MIC (Pseudomonas aeruginosa) [µg/mL] | growth inhibition (GI) (Staphylococcus aureus [2]) | Ratio (Staphylococcus aureus [3])
1 | C=CCOc1ccc2ncc(F)c(CCC34CCC(NCc5ccc6c(n5)NC(=O)CO6)(CC3)CO4)c2n1 | 0.063 (≈ 0.121 µM) | 1 (≈ 1.92 µM) | 8 (≈ 15.4 µM) | 8 (≈ 15.4 µM) | 2 (≈ 3.85 µM) | 16 (≈ 30.8 µM) | Active | <4
2 | CCOc1ccc2ncc(F)c(CCC34CCC(NCc5ccc6c(n5)NC(=O)CO6)(CC3)CO4)c2n1 | 0.031 (≈ 0.0611 µM) | 0.5 (≈ 0.985 µM) | 2 (≈ 3.94 µM) | 4 (≈ 7.88 µM) | 2 (≈ 3.94 µM) | 8 (≈ 15.8 µM) | Active | –
3 | NC1(COc2ccc3ncc(F)c(CCC45CCC(NCc6ccc7c(n6)NC(=O)CO7)(CC4)CO5)c3n2)CC1 | 0.25 (≈ 0.456 µM) | 1 (≈ 1.82 µM) | 8 (≈ 14.6 µM) | 2 (≈ 3.65 µM) | 1 (≈ 1.82 µM) | 16 (≈ 29.2 µM) | Active | –
4 | CC(C)CCOc1ccc2ncc(F)c(CCC34CCC(NCc5ccc6c(n5)NC(=O)CO6)(CC3)CO4)c2n1 | 0.125 (≈ 0.227 µM) | 1 (≈ 1.82 µM) | 8 (≈ 14.6 µM) | 16 (≈ 29.1 µM) | 16 (≈ 29.1 µM) | 16 (≈ 29.1 µM) | Active | –
5 | N#CC1(COc2ccc3ncc(F)c(CCC45CCC(NCc6ccc7c(n6)NC(=O)CO7)(CC4)CO5)c3n2)CC1 | 0.063 (≈ 0.113 µM) | 1 (≈ 1.79 µM) | 4 (≈ 7.16 µM) | 16 (≈ 28.6 µM) | 2 (≈ 3.58 µM) | 16 (≈ 28.6 µM) | Active | –
6 | N[C@@H]1C(=O)NC[C@H]1Oc1ccc2ncc(F)c(CCC34CCC(NCc5ccc6c(n5)NC(=O)CO6)(CC3)CO4)c2n1 | 16 (≈ 27.7 µM) | 16 (≈ 27.7 µM) | 16 (≈ 27.7 µM) | 16 (≈ 27.7 µM) | 16 (≈ 27.7 µM) | 16 (≈ 27.7 µM) | Active | –
7 | O=C(O)CCCOc1ccc2ncc(F)c(CCC34CCC(NCc5ccc6c(n5)NC(=O)CO6)(CC3)CO4)c2n1 | 0.25 (≈ 0.442 µM) | 0.5 (≈ 0.884 µM) | 4 (≈ 7.07 µM) | 16 (≈ 28.3 µM) | 16 (≈ 28.3 µM) | 16 (≈ 28.3 µM) | Active | –
8 | O=C1COc2ccc(CNC34CCC(CCc5c(F)cnc6ccc(OC7CC(O)CC(O)C7)nc56)(CC3)OC4)nc2N1 (stereo not given) | 0.5 (≈ 0.842 µM) | 0.5 (≈ 0.842 µM) | 16 (≈ 27 µM) | 64 (≈ 108 µM) | 32 (≈ 53.9 µM) | 64 (≈ 108 µM) | Active | –
9 | CCOC(=O)CCCOc1ccc2ncc(F)c(CCC34CCC(NCc5ccc6c(n5)NC(=O)CO6)(CC3)CO4)c2n1 | 0.031 (≈ 0.0522 µM) | 0.125 (≈ 0.211 µM) | 2 (≈ 3.37 µM) | 8 (≈ 13.5 µM) | 2 (≈ 3.37 µM) | 8 (≈ 13.5 µM) | Active | –
10 | O=C1COc2ccc(CNC34CCC(CCc5c(F)cnc6ccc(OC[C@H]7C[C@H]7C(=O)O)nc56)(CC3)OC4)nc2N1 (relative stereo) | 0.125 (≈ 0.216 µM) | 0.125 (≈ 0.216 µM) | 2 (≈ 3.46 µM) | 32 (≈ 55.4 µM) | 32 (≈ 55.4 µM) | 32 (≈ 55.4 µM) | Active | –
11 | NC1CC1COc1ccc2ncc(F)c(CCC34CCC(NCc5ccc6c(n5)NC(=O)CO6)(CC3)CO4)c2n1 (stereo not given) | 0.125 (≈ 0.228 µM) | 1 (≈ 1.82 µM) | 4 (≈ 7.29 µM) | 2 (≈ 3.65 µM) | 0.25 (≈ 0.456 µM) | 16 (≈ 29.2 µM) | Active | –
12 | O=C1COc2ccc(CNC34CCC(CCc5c(F)cnc6ccc(OCCCCO)nc56)(CC3)OC4)nc2N1 | 0.031 (≈ 0.0562 µM) | 0.5 (≈ 0.906 µM) | 2 (≈ 3.63 µM) | 8 (≈ 14.5 µM) | 2 (≈ 3.63 µM) | 16 (≈ 29 µM) | Active | –

Source: ChEMBL document CHEMBL3603744, “Structure activity relationship of C-2 ether substituted 1,5-naphthyridine analogs of oxabicyclooctane-linked novel bacterial topoisomerase inhibitors as broad-spectrum antibacterial agents (Part-5)” (Bioorg Med Chem Lett, 2015)
